In US20240246967A1, “AXL COMPOUNDS” (ARCUS BIOSCIENCES, INC., priority 2021, published 2024):

What was measured:
human MER = target: T1, human MER (Homo sapiens, UniProt Q12866); assay: HTRF KinEASE-TK biochemical potency assay, MER; conditions: 1 nM MER, 700 μM ATP, 800 nM TK Substrate-biotin
T1 construct: purchased Invitrogen
T1 sequence (Q12866 21-999): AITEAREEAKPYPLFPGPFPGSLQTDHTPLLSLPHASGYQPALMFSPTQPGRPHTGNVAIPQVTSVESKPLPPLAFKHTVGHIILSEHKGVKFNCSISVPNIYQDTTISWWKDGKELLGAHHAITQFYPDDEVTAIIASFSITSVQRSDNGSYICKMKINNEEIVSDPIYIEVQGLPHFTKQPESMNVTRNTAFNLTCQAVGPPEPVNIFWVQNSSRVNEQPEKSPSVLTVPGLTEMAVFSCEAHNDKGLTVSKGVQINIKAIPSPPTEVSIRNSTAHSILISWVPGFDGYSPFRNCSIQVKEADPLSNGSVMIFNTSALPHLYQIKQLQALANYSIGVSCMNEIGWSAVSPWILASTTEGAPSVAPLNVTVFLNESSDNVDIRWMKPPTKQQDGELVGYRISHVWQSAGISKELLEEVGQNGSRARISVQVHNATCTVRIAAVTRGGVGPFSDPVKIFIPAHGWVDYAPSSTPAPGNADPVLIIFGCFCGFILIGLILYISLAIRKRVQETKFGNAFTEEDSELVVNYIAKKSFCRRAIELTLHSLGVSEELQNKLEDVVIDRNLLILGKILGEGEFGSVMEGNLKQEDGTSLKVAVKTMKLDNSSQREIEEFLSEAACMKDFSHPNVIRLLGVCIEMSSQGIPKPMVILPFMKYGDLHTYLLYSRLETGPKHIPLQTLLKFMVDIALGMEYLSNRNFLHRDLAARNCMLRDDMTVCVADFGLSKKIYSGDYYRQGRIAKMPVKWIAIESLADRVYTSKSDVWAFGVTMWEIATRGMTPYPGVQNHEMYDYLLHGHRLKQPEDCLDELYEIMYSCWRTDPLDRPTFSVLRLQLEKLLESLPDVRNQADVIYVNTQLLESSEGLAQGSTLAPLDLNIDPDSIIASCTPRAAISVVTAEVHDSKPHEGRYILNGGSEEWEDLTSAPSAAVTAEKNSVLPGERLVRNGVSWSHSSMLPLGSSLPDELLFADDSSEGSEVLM
Protocol: (§1) Purified recombinant human AXL, TYRO3 and MER proteins were purchased from Invitrogen™. 10 nM AXL, 2 nM TYRO3 or MER were incubated with varying concentrations of compounds in 50 mM HEPES, pH 7.4, 10 mM MgCl2, 0.01% BSA, 1 mM DTT and 2% DMSO in a total volume of 20 μl in a 384-well microplate (Corning™ #3640) at RT for 1 h. The AXL, TYRO3 and MER enzymatic reaction was initiated by transferring 10 μl of enzyme and compound mixture into 10 μl of 1.6 μM TK Substrate-biotin (HTRF® KinEASE-TK kit, Cisbio) and 1400 μM ATP pre-incubated in 50 mM HEPES, pH 7.4, 10 mM MgCl2, 0.01% BSA, 1 mM DTT in a 384-well microplate (Corning™ #3640) at RT, giving the final reaction conditions: 5 nM AXL, 1 nM TYRO3 or MER, 800 nM TK Substrate-biotin and 700 μM ATP in 50 mM HEPES, pH 7.4, 10 mM MgCl2, 0.01% BSA, 1 mM DTT and 1% DMSO with varying concentrations of compounds. Following 2 h incubation at RT, the AXL, TYRO3 and MER enzymatic reaction was stopped by transfer of 10 μl of reaction into 10 μl of detection mix (400 nM Streptavidin-XL665, 200-fold dilution TK Antibody-Cryptate and detection buffer, HTRF® KinEASE-TK kit, Cisbio) in a white 384-well microplate (Perkin Elmer, OptiPlate 384). After 1 h incubation at RT, the plate was put into a plate reader (Evision) to read at 665/620 nm (acceptor/donor) for HTRF. The value of the DMSO blank (MIN inhibition=100% activity) was used as a negative control. The positive control was established by adding 5 μl of enzyme and DMSO mixture into 10 μl of detection mix followed by addition of 5 μl of TK Substrate-biotin and ATP mixture (MAX inhibition=0% activity). To calculate the percent activity, Equation 1 was used. Ratio 665/620 is the value at a given compound concentration: […]

human TYRO3 = target: T2, human TYRO3 (Homo sapiens, UniProt Q06418); assay: HTRF KinEASE-TK biochemical potency assay, TYRO3; conditions: 1 nM TYRO3, 700 μM ATP, 800 nM TK Substrate-biotin
T2 construct: purchased Invitrogen
T2 sequence (Q06418 41-890): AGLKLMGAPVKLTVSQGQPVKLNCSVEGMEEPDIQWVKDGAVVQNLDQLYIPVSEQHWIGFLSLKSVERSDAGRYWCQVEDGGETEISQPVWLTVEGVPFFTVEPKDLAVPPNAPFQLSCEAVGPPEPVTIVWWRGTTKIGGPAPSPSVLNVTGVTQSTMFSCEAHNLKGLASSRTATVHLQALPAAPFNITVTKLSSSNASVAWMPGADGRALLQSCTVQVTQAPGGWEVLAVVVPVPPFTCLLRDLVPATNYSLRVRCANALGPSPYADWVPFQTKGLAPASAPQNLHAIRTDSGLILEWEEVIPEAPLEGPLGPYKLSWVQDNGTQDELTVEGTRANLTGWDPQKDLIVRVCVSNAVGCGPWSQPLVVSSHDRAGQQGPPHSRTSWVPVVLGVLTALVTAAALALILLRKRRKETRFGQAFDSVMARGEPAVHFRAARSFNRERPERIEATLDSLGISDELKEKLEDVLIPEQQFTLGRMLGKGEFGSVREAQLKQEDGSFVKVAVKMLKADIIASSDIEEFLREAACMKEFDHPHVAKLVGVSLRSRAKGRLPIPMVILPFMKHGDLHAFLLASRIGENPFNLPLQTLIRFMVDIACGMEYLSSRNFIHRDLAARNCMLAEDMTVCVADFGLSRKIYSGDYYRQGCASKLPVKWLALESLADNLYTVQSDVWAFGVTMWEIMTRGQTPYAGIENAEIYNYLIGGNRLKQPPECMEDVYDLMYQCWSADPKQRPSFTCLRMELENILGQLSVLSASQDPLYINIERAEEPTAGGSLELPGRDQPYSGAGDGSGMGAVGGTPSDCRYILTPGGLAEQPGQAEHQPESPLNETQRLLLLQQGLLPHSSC
Protocol: as §1

Question: How did the IC50 (human MER) turn out when `C[C@H]1CCCN1C1CCc2ccc(-c3cnc4[nH]nc(-c5ccc(S(=O)(=O)C6CC6)cc5)c4c3)cc2CC1` (stereo partly drawn) [Example 24, 3-(4-(Cyclopropylsulfonyl)phenyl)-5-(7-((S)-2-methylpyrrolidin-1-yl)-6,7,8,9-tetrahydro-5H-benzo[7]annulen-2-yl)-1H-pyrazolo[3,4-b]pyridine] was run?
Answer: 100 to 1000 nM

Question: And the IC50 (human TYRO3)?
Answer: 100 to 1000 nM

Question: How did the IC50 (human MER) turn out when `C[C@@H]1CCCN1C1(C)CCc2ccc(-c3cnc4[nH]nc(-c5ccc(S(=O)(=O)C6CC6)c(F)c5)c4c3)cc2CC1` (stereo partly drawn) [Example 25, (2R)-1-(2-{3-[4-(Cyclopropanesulfonyl)-3-fluorophenyl]-1H-pyrazolo[3,4-b]pyridin-5-yl}-7-methyl-6,7,8,9-tetrahydro-5H-benzo[7]annulen-7-yl)-2-methylpyrrolidine] was run?
Answer: 100 to 1000 nM

Question: And the IC50 (human TYRO3)?
Answer: < 100 nM

Question: What does the source list for `O=S(=O)(c1ccc(-c2n[nH]c3ncc(-c4ccc5c(c4)CCN(C4CCOCC4)CC5)cc23)cc1)C1CC1` [Example 26, 7-{3-[4-(Cyclopropanesulfonyl)phenyl]-1H-pyrazolo[3,4-b]pyridin-5-yl}-3-(oxan-4-yl)-2,3,4,5-tetrahydro-1H-3-benzazepine]?
Answer: IC50 (human MER): > 1000 nM; IC50 (human TYRO3): 100 to 1000 nM

Question: What does the source list for `O=S(=O)(c1ccc(-c2n[nH]c3ncc(-c4ccc5c(c4)CCN(CC4CCOC4)CC5)cc23)cc1)C1CC1` (stereo not drawn) [Example 27, 7-{3-[4-(Cyclopropanesulfonyl)phenyl]-1H-pyrazolo[3,4-b]pyridin-5-yl}-3-[(oxolan-3-yl)methyl]-2,3,4,5-tetrahydro-1H-3-benzazepine]?
Answer: IC50 (human MER): > 1000 nM; IC50 (human TYRO3): > 1000 nM

Question: `CS(=O)(=O)c1ccc(-c2n[nH]c3ncc(-c4ccc5c(c4)CCN(C4CCCC4)CC5)cc23)cc1` [Example 30, 3-Cyclopentyl-7-(3-(4-(methylsulfonyl)phenyl)-1H-pyrazolo[3,4-b]pyridin-5-yl)-2,3,4,5-tetrahydro-1H-benzo[d]azepine] was tested. Which IC50 (human MER) did it give?
Answer: 100 to 1000 nM

Question: And the IC50 (human TYRO3)?
Answer: < 100 nM

Question: For `CS(=O)(=O)c1ccc(-c2n[nH]c3ncc(-c4ccc5c(c4)CCN(C4CCCC4)CC5)cc23)cc1Cl` [Example 31, 7-(3-(3-Chloro-4-(methylsulfonyl)phenyl)-1H-pyrazolo[3,4-b]pyridin-5-yl)-3-cyclopentyl-2,3,4,5-tetrahydro-1H-benzo[d]azepine], which IC50 (human MER) is on record?
Answer: 100 to 1000 nM

Question: And the IC50 (human TYRO3)?
Answer: < 100 nM

Question: How did the IC50 (human MER) turn out when `CS(=O)(=O)c1ccc(-c2n[nH]c3ncc(-c4ccc5c(c4)CCN(C4CCCC4)CC5)cc23)cc1F` [Example 32, 3-Cyclopentyl-7-(3-(3-fluoro-4-(methylsulfonyl)phenyl)-1H-pyrazolo[3,4-b]pyridin-5-yl)-2,3,4,5-tetrahydro-1H-benzo[d]azepine] was run?
Answer: 100 to 1000 nM

Question: And the IC50 (human TYRO3)?
Answer: 100 to 1000 nM

Question: `COCCN1CCc2ccc(-c3cnc4[nH]nc(-c5ccc(C(C)(C)O)c(Cl)c5)c4c3)cc2CC1` [Example 34, 2-(2-Chloro-4-(5-(3-(2-methoxyethyl)-2,3,4,5-tetrahydro-1H-benzo[d]azepin-7-yl)-1H-pyrazolo[3,4-b]pyridin-3-yl)phenyl)propan-2-ol] was tested. Which IC50 (human MER) did it give?
Answer: > 1000 nM

Question: What about the IC50 (human TYRO3) of the same molecule?
Answer: 100 to 1000 nM

Question: Which IC50 (human MER) does the source give for `C[C@@H]1CCCN1C1CCc2ccc(-c3cnc4[nH]nc(-c5ccc(C(C)(C)O)c(Cl)c5)c4c3)cc2CC1` (stereo partly drawn) [Example 35, 2-(2-Chloro-4-(5-(7-((R)-2-methylpyrrolidin-1-yl)-6,7,8,9-tetrahydro-5H-benzo[7]annulen-2-yl)-1H-pyrazolo[3,4-b]pyridin-3-yl)phenyl)propan-2-ol] here?
Answer: 100 to 1000 nM

Question: And the IC50 (human TYRO3)?
Answer: 100 to 1000 nM

Question: Which IC50 (human MER) does the source give for `C[C@H]1CCCN1C1CCc2ccc(-c3cnc4[nH]nc(-c5ccc(S(C)(=O)=O)cc5)c4c3)cc2CC1` (stereo partly drawn) [Example 36, 5-(7-((S)-2-Methylpyrrolidin-1-yl)-6,7,8,9-tetrahydro-5H-benzo[7]annulen-2-yl)-3-(4-(methylsulfonyl)phenyl)-1H-pyrazolo[3,4-b]pyridine] here?
Answer: 100 to 1000 nM

Question: What about the IC50 (human TYRO3) of the same molecule?
Answer: < 100 nM

Question: Which IC50 (human MER) does the source give for `C[C@H]1CCCN1C1CCc2ccc(-c3cnc4[nH]nc(-c5ccc(C(C)(C)O)c(Cl)c5)c4c3)cc2CC1` (stereo partly drawn) [Example 37, 2-(2-Chloro-4-(5-(7-((S)-2-methylpyrrolidin-1-yl)-6,7,8,9-tetrahydro-5H-benzo[7]annulen-2-yl)-1H-pyrazolo[3,4-b]pyridin-3-yl)phenyl)propan-2-ol] here?
Answer: 100 to 1000 nM

Question: And the IC50 (human TYRO3)?
Answer: 100 to 1000 nM

Question: For `C[C@@H]1CCCN1C1CCc2ccc(-c3cnc4[nH]nc(-c5ccc(S(C)(=O)=O)cc5)c4c3)cc2CC1` (stereo partly drawn) [Example 38, 5-(7-((R)-2-Methylpyrrolidin-1-yl)-6,7,8,9-tetrahydro-5H-benzo[7]annulen-2-yl)-3-(4-(methylsulfonyl)phenyl)-1H-pyrazolo[3,4-b]pyridine], which IC50 (human MER) is on record?
Answer: 100 to 1000 nM

Question: What about the IC50 (human TYRO3) of the same molecule?
Answer: < 100 nM

Question: `C[C@@H]1CCCN1C1CCc2ccc(-c3cnc4[nH]nc(-c5ccc(S(=O)(=O)C6CC6)cc5)c4c3)cc2CC1` (stereo partly drawn) [Example 39, 3-(4-(Cyclopropylsulfonyl)phenyl)-5-(7-((R)-2-methylpyrrolidin-1-yl)-6,7,8,9-tetrahydro-5H-benzo[7]annulen-2-yl)-1H-pyrazolo[3,4-b]pyridine] was tested. Which IC50 (human MER) did it give?
Answer: 100 to 1000 nM

Question: What about the IC50 (human TYRO3) of the same molecule?
Answer: 100 to 1000 nM

Question: How did the IC50 (human MER) turn out when `O=S(=O)(c1ccc(-c2n[nH]c3ncc(-c4ccc5c(c4)CC[C@@H](N4CCCC4)CC5)cc23)cc1)C1CC1` [Example 40, (S)-3-(4-(Cyclopropylsulfonyl)phenyl)-5-(7-(pyrrolidin-1-yl)-6,7,8,9-tetrahydro-5H-benzo[7]annulen-2-yl)-1H-pyrazolo[3,4-b]pyridine] was run?
Answer: 100 to 1000 nM

Question: What about the IC50 (human TYRO3) of the same molecule?
Answer: < 100 nM

Question: How did the IC50 (human MER) turn out when `CCS(=O)(=O)c1ccc(-c2n[nH]c3ncc(-c4ccc5c(c4)CC[C@@H](N4CCCC4)CC5)cc23)cc1` [Example 41, (S)-3-(4-(Ethylsulfonyl)phenyl)-5-(7-(pyrrolidin-1-yl)-6,7,8,9-tetrahydro-5H-benzo[7]annulen-2-yl)-1H-pyrazolo[3,4-b]pyridine] was run?
Answer: 100 to 1000 nM

Question: And the IC50 (human TYRO3)?
Answer: < 100 nM
